Patent US9018214B2, “Bicyclic heterocycle compounds and their uses in therapy” (Astex Therapeutics Limited, priority 2011, dated 2015)
Where a name gives a salt, the structure may show the parent alone. Read-outs that look alike come from different tables or passages of the source.

Key:
[1] = biological target: BIR3 domain of human XIAP (residues 252-350) (Homo sapiens (Human), UniProt P98170); assay: XIAP in vitro competitive displacement binding assay (fluorescence polarization); details: for IC50: read-out: IC50 or PI Xiap: IC50
[2] = biological target: BIR3 domain of human cIAP-1 (residues 267-363) (Homo sapiens (Human), UniProt Q13490); assay: cIAP-1 in vitro competitive displacement binding assay (fluorescence polarization; Probe A AVPIK(5&6FAM)-amide or Probe B AbuRPFK(5&6FAM)-amide)
[3] = test system: EVSA-T (human breast carcinoma); assay: Anti-proliferative activity, Alamar Blue assay, EVSA-T; assay type: cell-based; details: Homo sapiens
[4] = test system: MDA-MB-231 (human breast carcinoma); assay: Anti-proliferative activity, Alamar Blue assay, MDA-MB-231; assay type: cell-based; details: read-out: EC50, inhibition of cell growth
[5] = read-out: IC50 or PI cIAP1: IC50
[6] = EVSA-T, 72 h, read-out: EC50, inhibition of cell growth
[7] = EVSA-T, 72 h, read-out: EVSA-T prolif (EC50)
[8] = Probe B AbuRPFK(5&6FAM)-amide, read-out: IC50 or PI cIAP1: IC50
[9] = EVSA-T cell line, 72 hours, Alamar Blue, read-out: EC50, inhibition of cell growth
[10] = EVSA-T, 72 hours, Alamar Blue, read-out: EVSA-T prolif (EC50)
[11] = MDA-MB-231 cell line, 72 hours, Alamar Blue
[12] = 1 h, read-out: IC50 or PI Xiap: PI
[13] = 3 h, read-out: IC50 or PI cIAP1: PI

SMILES	IC50 [1] [nM]	EC50 [3, 7] [nM]	EC50 ([4]; MDA-MB-231, 72 h) [nM]	IC50 [2, 8] [nM]	EC50 [3, 10] [nM]	EC50 [4, 11] [nM]	other results
C[C@@H]1CN(CC(=O)N2CC(C)(C)c3cc(F)c(S(=O)(=O)c4ccccc4)cc32)CCN1 [Example 47, 1-(6-Benzenesulfonyl-5-fluoro-3,3-dimethyl-2,3-dihydro-indol-1-yl)-2-((R)-3-methyl-piperazin-1-yl)-ethanone dihydrochloride salt]	270	1800	< 10000				IC50 [2]: < 1000 nM; IC50 [2, 5]: 390 nM; EC50 [3, 6]: < 10000 nM
CC[C@H]1CN[C@H](C)CN1CC(=O)N1CC(C)(C)c2cc(F)c(S(=O)(=O)c3ccccc3)cc21 [Example 48, 1-(6-Benzenesulfonyl-5-fluoro-3,3-dimethyl-2,3-dihydro-indol-1-yl)-2-((2S,5R)-2-ethyl-5-methyl-piperazin-1-yl)-ethanone dihydrochloride salt]	97	250	< 10000				IC50 [2]: < 1000 nM; IC50 [2, 5]: 64 nM; EC50 [3, 6]: < 10000 nM
COC[C@H]1CN[C@H](C)CN1CC(=O)N1CC(C)(C)c2cc(F)c(S(=O)(=O)c3ccccc3)cc21 [Example 58, 1-(6-Benzene-sulfonyl-5-fluoro-3,3-dimethyl-2,3-dihydro-indol-1-yl)-2-((2R,5R)-2-methoxymethyl-5-methyl-piperazin-1-yl)-ethanone hydrochloride salt]		170	< 10000	45			
COC[C@H]1CN[C@H](C)CN1CC(=O)N1CC(C)(C)c2cc(F)c(S(=O)(=O)c3ccc(OC)cc3)cc21 [Example 60, 1-[5-Fluoro-6-(4-methoxy-benzenesulfonyl)-3,3-dimethyl-2,3-dihydro-indol-1-yl]-2-((2R,5R)-2-methoxymethyl-5-methyl-piperazin-1-yl)-ethanone dihydrochloride salt]		690	< 10000				
COC[C@H]1CN[C@H](C)CN1CC(=O)N1CC(C)(C)c2cnc(Cc3ccccc3)cc21 [Example 63, 1-(6-Benzyl-3,3-dimethyl-2,3-dihydro-pyrrolo[3,2-c]pyridin-1-yl)-2-((2R,5R)-2-methoxy-methyl-5-methyl-piperazin-1-yl)-ethanone hydrochloride salt]		100	< 10000				
COC[C@H]1CN[C@H](C)CN1CC(=O)N1CC(C)(C)c2ccc(S(=O)(=O)CC(C)C)cc21 [Example 64, 1-[3,3-Dimethyl-6-(2-methyl-propane-1-sulfonyl)-2,3-dihydro-indol-1-yl]-2-((2R,5R)-2-methoxymethyl-5-methyl-piperazin-1-yl)-ethanone dihydrochloride salt]	270	1000	< 10000				IC50 [2, 5]: 140 nM
COC[C@H]1CN[C@H](C)CN1CC(=O)N1CC(C)(C)c2cc(=O)n(Cc3ccccc3)cc21 [Example 67, 6-Benzyl-1-[2-((2R,5R)-2-methoxymethyl-5-methyl-piperazin-1-yl)-acetyl]-3,3-dimethyl-1,2,3,6-tetrahydro-pyrrolo[2,3-c]pyridin-5-one hydrochloride salt]	310			17	350	< 10000	IC50 [2]: < 1000 nM; EC50 [3, 9]: < 10000 nM
COC[C@H]1CN[C@H](C)CN1CC(=O)N1CC(C)(C)c2cnc(Cc3ccc(Cl)cc3)cc21 [Example 82, 1-[6-(4-Chloro-benzyl)-3,3-dimethyl-2,3-dihydro-pyrrolo[3,2-c]pyridin-1-yl]-2-((2R,5R)-2-methoxymethyl-5-methyl-piperazin-1-yl)-ethanone]	220				34	< 10000	inhibition at 0.01 µM ([2]; 3 h, Probe B, @ 0.01 μM, read-out: IC50 or PI cIAP1: PI): 86%; EC50 [3, 9]: < 10000 nM
COC[C@H]1CN[C@H](C)CN1CC(=O)N1CC(C)(C)c2cnc(Oc3ccccc3C)cc21 [Example 83, 1-(3,3-Dimethyl-6-o-tolyloxy-2,3-dihydro-pyrrolo[3,2-c]pyridin-1-yl)-2-((2R,5R)-2-methoxymethyl-5-methyl-piperazin-1-yl)-ethanone hydrochloride salt]	350			110	2000	< 10000	IC50 [2]: < 1000 nM; EC50 [3, 9]: < 10000 nM
C=C(c1ccccc1)c1cc2c(cn1)C(C)(C)CN2C(=O)CN1C[C@@H](C)NC[C@@H]1COC [Example 93, 1-[3,3-Dimethyl-6-(1-phenylethenyl)-1H,2H,3H-pyrrolo[3,2-c]pyridin-1-yl]-2-[(2R,5R)-2-(methoxymethyl)-5-methylpiperazin-1-yl]ethan-1-one, hydrochloride salt]	490			59	1000	< 10000	
COC[C@H]1CN[C@H](C)CN1CC(=O)N1CC(C)(C)c2ccc(Cc3ccccc3)cc21 [Example 94, 1-(6-Benzyl-3,3-dimethyl-2,3-dihydro-1H-indol-1-yl)-2-[(2R,5R)-2-(methoxy-methyl)-5-methyl-piperazin-1-yl]ethan-1-one, hydrochloride salt]		330	< 10000	14			
COC[C@H]1CN[C@H](C)CN1CC(=O)N1CC(C)(C)c2cnc(C(=O)c3ccccc3)cc21 [Example 96, 1-{6-Benzoyl-3,3-dimethyl-1H,2H,3H-pyrrolo[3,2-c]pyridin-1-yl}-2-[(2R,5R)-2-(methoxymethyl)-5-methylpiperazin-1-yl]ethan-1-one, dihydrochloride salt]	340	3000	< 10000				IC50 [2, 5]: 77 nM; EC50 [3, 6]: < 10000 nM
COC[C@H]1CN[C@H](C)CN1CC(=O)N1CC(C)(C)c2cnc(Cc3cccc(F)c3)cc21 [Example 97, 1-{6-[(3-Fluorophenyl)methyl]-3,3-dimethyl-1H,2H,3H-pyrrolo[3,2-c]pyridin-1-yl}-2-[(2R,5R)-2-(methoxy-methyl)-5-methyl-piperazin-1-yl]ethan-1-one, hydrochloride salt]	340			17	320	< 10000	EC50 [3, 9]: < 10000 nM
COC[C@H]1CN[C@H](C)CN1CC(=O)N1CC(C)(C)c2cnc(Oc3c(C)cccc3C)cc21 [Example 119, 1-[6-(2,6-Dimethylphenoxy)-3,3-dimethyl-1H,2H,3H-pyrrolo[3,2-c]pyridin-1-yl]-2-[(2R,5R)-2-(methoxymethyl)-5-methylpiperazin-1-yl]ethan-1-one hydrochloride]		870	< 10000	96			
C[C@@H]1CN(CC(=O)N2CC(C)(C)c3cnc(Cc4ccccc4)cc32)[C@@H](CF)CN1 [Example 121, 1-{6-Benzyl-3,3-dimethyl-1H,2H,3H-pyrrolo[3,2-c]pyridin-1-yl}-2-[(2R,5R)-2-(fluoromethyl)-5-methylpiperazin-1-yl]ethan-1-one hydrochloride]	190			21	380	< 10000	
CCC(F)(F)c1cnc2c(c1)N(C(=O)CN1C[C@@H](C)NC[C@@H]1CN1CCOC[C@H]1COC)CC2(C)C [Example 256, 1-[6-(1,1-Difluoropropyl)-3,3-dimethyl-1H,2H,3H-pyrrolo[3,2-b]pyridin-1-yl]-2-[(2R,5R)-2-{[(3R)-3-(methoxymethyl)morpholin-4-yl]methyl}-5-methylpiperazin-1-yl]ethan-1-one dihydrochloride]	53	78					IC50 [2]: < 1000 nM; IC50 [2, 5]: 24 nM
CCCC(F)(F)c1cnc2c(c1)N(C(=O)CN1C[C@@H](C)NC[C@@H]1CN1CCOC[C@H]1C)CC2(C)C [Example 260, 1-[6-(1,1-Difluoro-butyl)-3,3-dimethyl-2,3-dihydro-pyrrolo[3,2-b]pyridin-1-yl]-2-[(2R,5R)-5-methyl-2-((R)-3-methyl-morpholin-4-ylmethyl)-piperazin-1-yl]-ethanone dihydrochloride]					4.4		inhibition at 0.04 µM [1, 12]: 73%; inhibition at […] [2, 13]: 90%
C[C@@H]1CN(CC(=O)N2CC(C)(C)c3ncc(Cc4ccccc4F)cc32)[C@@H](CN2CCOC[C@H]2C)CN1 [Example 261, 1-[6-(2-Fluoro-benzyl)-3,3-dimethyl-2,3-dihydro-pyrrolo[3,2-b]pyridin-1-yl]-2-[(2R,5R)-5-methyl-2-((R)-3-methyl-morpholin-4-ylmethyl)-piperazin-1-yl]-ethanone dihydrochloride]					2.1		inhibition at 0.04 µM [1, 12]: 55%; inhibition at […] [2, 13]: 96%
C[C@@H]1CN(CC(=O)N2CC(C)(C)c3ncc(Cc4ccc(F)cc4F)cc32)[C@@H](CN2CCOC[C@H]2C)CN1 [Example 264, 1-[6-(2,4-Difluoro-benzyl)-3,3-dimethyl-2,3-dihydro-pyrrolo[3,2-b]pyridin-1-yl]-2-[(2R,5R)-5-methyl-2-((R)-3-methyl-morpholin-4-ylmethyl)-piperazin-1-yl]-ethanone, dihydrochloride]					1		inhibition at 0.04 µM [1, 12]: 68%; inhibition at […] [2, 13]: 98%
CC[C@@H](C(=O)N1CC(C)(C)c2ccc(C#N)cc21)N1CCN[C@H](C)C1 [Example 266, 3,3-Dimethyl-1-[(2S)-2-[(3R)-3-methylpiperazin-1-yl]butanoyl]-2,3-dihydro-1H-indole-6-carbonitrile, hydrochloride salt]							inhibition at 150 µM [1, 12]: -6%; inhibition at 50 µM [2, 13]: 24%; inhibition at 10 µM ([3]; EVSA-T, at 10 μM, read-out: EVSA-T prolif: % inhibition): -20%
